What follows are compounds tested against T1, Tau-Synaptogyrin3 interaction (Homo sapiens, UniProt O43761+P10636) (assay: Cell-based split luciferase (NanoBit) protein complementary assay for Tau-Synaptogyrin3 interaction in stable cell line HEK293T-TK252-1E2). Conditions: HEK293T-TK252-1E2 cells, 48 hrs compound treatment, L/F value (luciferase activity/fluorescent intensity) compared to DMSO control.
T1 construct: expressed in transfected cells
Experimental: Live cell luciferase assay: Live cell luciferase activity was measured using NanoGlo® Live Cell Assay System (Cat# N2012. Promega, WI, USA), according to manufacturer's instruction. All microplate-based measurement was performed with BioTek Synergy H1 (Agilent. CA, USA).
For producing HEK293T-TK252 stable cell line for screening, BglII-linearized pTK252 was transfected to HEK293T cells. After 24 hrs transfection, the transfected cells were cultured in the culture media containing 1 µg/ml puromycin (10 mM in DMSO, Cat# J61278/ Alfa Aesar. ThermoFisher Korea, Seoul, Korea) for 9 days. Regular media change was performed in every 3 days with fresh puromycin of indicating concentration during the whole selection period. The selected cells were trypsinized and diluted to 5 cells/ml and seeded to 4x 96 well cell culture plates (100 µl/well), and cultured with the cell culture media containing 1 µg/ml puromycin for 11 days. 18 wells that contained only GFP-positive cells were selected for expansion, and cultured with the cell culture media containing 0.1-0.2 µg/ml puromycin for 14 days. 10 clones were discarded during the expansion due to emerging of non-GFP cells, and 8 clones were validated. The selected clone (1E2) was cultured with the cell culture media containing 0.5 µg/ml puromycin for further experiments.
3 µmol of 1,728 compounds were purchased from Otava Chemicals MB (Vilniaus, Lithuania), dissolved into 300 µl DMSO (10 mM) and stored at -80°C. 4x10^4 HEK293T-TK252-1E2 cells were seeded with 100 µl of the cell culture media into 96 white well cell culture plates (Cat# 30196. SPL, Seoul, Korea), 48 hrs prior to compound treatment. For 10 µM compound treatment, 10 mM compound stock was diluted to 50 µM with the cell culture media, and 25 µl of the diluted compound was added to the designated wells of the 96 well plates. For dose-response experiments, the amount of compounds for dilution was adjusted to fit the volume indicated above. After 48 hrs compound treatment, the cells were washed once with OptiMEM and live cell luciferase activity, fluorescent intensity and fluorescence area scan was measured.
1,728 compounds were treated at 10 µM to HEK293T-TK252-1E2 cells and incubated for 48 hrs. […] Single wash step with culture media without FBS was included before measurement to discard dead cells and to remove FBS that affects luciferase assay. […] Fluorescent intensity was taken for normalization, which is expected to be proportion to the cell number at the measuring point. L/F value which is luciferase activity normalized with fluorescent intensity (L/F = Luciferase activity/ Fluorescent intensity) was calculated for all measurements and compared to L/F value of DMSO controls to calculated the size of inhibitory effect. […] Fluorescence area scan (FA) performed right after luciferase activity and fluorescent intensity measurement, to validate total remaining fluorescent cells in a well as a proxy to the cellular toxicity. FA value was in proportion to WST assay results (data not shown), and average CV of triplicates of all measurements was 0.04.
61 compounds were further tested for dose-response profile, based on inhibitory effect that was measured by L/F value (<60%) and FA-based cell viability (>90%) at 10 µM compared to DMSO control. 10 compounds were considered as hit compounds through three times of reproduction.

T1 sequence (P10636 1-441 isoform P10636-8): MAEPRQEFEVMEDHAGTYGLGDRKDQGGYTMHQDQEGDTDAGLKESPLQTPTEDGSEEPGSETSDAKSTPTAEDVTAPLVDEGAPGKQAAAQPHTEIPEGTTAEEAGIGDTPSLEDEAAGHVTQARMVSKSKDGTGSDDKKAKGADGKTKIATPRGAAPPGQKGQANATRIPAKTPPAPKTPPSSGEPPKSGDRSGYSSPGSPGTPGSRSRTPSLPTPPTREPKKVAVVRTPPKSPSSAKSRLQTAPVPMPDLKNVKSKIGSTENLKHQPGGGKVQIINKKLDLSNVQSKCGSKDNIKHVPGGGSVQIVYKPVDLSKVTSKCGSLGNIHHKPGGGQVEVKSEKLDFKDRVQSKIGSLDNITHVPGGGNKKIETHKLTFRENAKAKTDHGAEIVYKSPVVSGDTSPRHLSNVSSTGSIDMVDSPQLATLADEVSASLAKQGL
T1 sequence (O43761 whole entry): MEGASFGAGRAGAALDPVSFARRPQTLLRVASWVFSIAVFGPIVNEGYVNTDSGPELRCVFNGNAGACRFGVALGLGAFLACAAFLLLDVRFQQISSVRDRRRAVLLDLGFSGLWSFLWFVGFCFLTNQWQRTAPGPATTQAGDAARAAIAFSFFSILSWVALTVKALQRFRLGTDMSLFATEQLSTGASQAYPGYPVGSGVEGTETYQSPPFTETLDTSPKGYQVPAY

IC50, 12 to 25 µM:
O=C(c1ccc(C(F)(F)F)cc1)N1CCc2[nH]c3ccc(-c4ccccc4)cc3c2C1 [Formula 12, (8-phenyl-1,3,4,5-tetrahydro-2H-pyrido[4,3-b]indol-2-yl)(4-(trifluoromethyl)phenyl)methanone]
O=C(c1cccnc1)N1CCc2[nH]c3ccc(-c4cccnc4)cc3c2C1 [Formula 31, Pyridin-3-yl(8-(pyridin-3-yl)-1,3,4,5-tetrahydro-2H-pyrido[4,3-b]indol-2-yl)methanone]
Cc1ccc(-c2ccc3[nH]c4c(c3c2)CN(C(=S)Nc2ccc(C#N)cc2)CC4)cc1 [Formula 77, N-(4-cyanophenyl)-8-(p-tolyl)-1,3,4,5-tetrahydro-2H-pyrido[4,3-b]indole-2-carbothioamide]
Cc1ccc(-c2ccc3[nH]c4c(c3c2)CN(C(=O)c2cccnc2)CC4)cn1 [Formula 48, (8-(6-methylpyridin-3-yl)-1,3,4,5-tetrahydro-2H-pyrido[4,3-b]indol-2-yl)(pyridin-3-yl)methanone]
O=C(c1cccc(Cl)c1)N1CCc2[nH]c3ccc(-c4ccccc4)cc3c2C1 [Formula 13, (3-chlorophenyl)(8-phenyl-1,3,4,5-tetrahydro-2H-pyrido[4,3-b]indol-2-yl)methanone]
Cc1ccccc1-c1ccc2[nH]c3c(c2c1)CN(C(=O)c1cccc(Cl)c1)CC3 [Formula 26, (3-chlorophenyl)(8-(o-tolyl)-1,3,4,5-tetrahydro-2H-pyrido[4,3-b]indol-2-yl)methanone]

IC50, 3 to 12 µM:
CCn1c2c(c3cc(-c4ccc(C)cc4)ccc31)CN(C(=O)c1cccnc1)CC2 [Formula 46, (5-ethyl-8-(p-tolyl)-1,3,4,5-tetrahydro-2H-pyrido[4,3-b]indol-2-yl)(pyridin-3-yl)methanone]
O=C(c1cncnc1)N1CCc2[nH]c3ccc(-c4ccccc4)cc3c2C1 [Formula 8, (8-phenyl-1,3,4,5-tetrahydro-2H-pyrido[4,3-b]indol-2-yl)(pyrimidin-5-yl)methanone]
Cc1cncc(C(=O)N2CCc3[nH]c4ccc(-c5ccccc5C)cc4c3C2)c1 [Formula 22, (5-methylpyridin-3-yl)(8-(o-tolyl)-1,3,4,5-tetrahydro-2H-pyrido[4,3-b]indol-2-yl)methanone]
O=C(c1ccncc1)N1CCc2[nH]c3ccc(-c4ccccc4)cc3c2C1 [Formula 3]
Cc1ccc(-c2ccc3[nH]c4c(c3c2)CN(C(=O)c2ccnc(C)c2)CC4)cc1 [Formula 41, (2-methylpyridin-4-yl)(8-(p-tolyl)-1,3,4,5-tetrahydro-2H-pyrido[4,3-b]indol-2-yl)methanone]
O=C(N1CCOCC1)N1CCc2[nH]c3ccc(-c4ccccc4)cc3c2C1 [Formula 19, Morpholino(8-phenyl-1,3,4,5-tetrahydro-2H-pyrido[4,3-b]indol-2-yl)methanone]
Cc1ccc(-c2ccc3[nH]c4c(c3c2)CN(C(=S)Nc2ccccc2)CC4)cc1 [Formula 74, N-phenyl-8-(p-tolyl)-1,3,4,5-tetrahydro-2H-pyrido[4,3-b]indole-2-carbothioamide]
Cc1ccc(-c2ccc3[nH]c4c(c3c2)CN(C(=O)c2ccc(N(C)C)cc2)CC4)cc1 [Formula 69, (4-(Dimethylamino)phenyl)(8-(p-tolyl)-1,3,4,5-tetrahydro-2H-pyrido[4,3-b]indol-2-yl)methanone]
O=C(c1ccccc1)N1CCc2[nH]c3ccc(-c4ccccc4)cc3c2C1 [Formula 9, Phenyl(8-phenyl-1,3,4,5-tetrahydro-2H-pyrido[4,3-b]indol-2-yl)methanone]
Cc1ccc(C(=O)N2CCc3[nH]c4ccc(-c5ccccc5C#N)cc4c3C2)cn1 [Formula 60, 2-(2-(6-Methylnicotinoyl)-2,3,4,5-tetrahydro-1H-pyrido[4,3-b]indol-8-yl)benzonitrile]
Cc1ccc(NC(=S)N2CCc3[nH]c4ccc(-c5ccc(C)cc5)cc4c3C2)cc1 [Formula 76, N,8-di-p-tolyl-1,3,4,5-tetrahydro-2H-pyrido[4,3-b]indole-2-carbothioamide]
Cc1ccc2[nH]c3c(c2c1)CN(C(=O)c1ccccc1)CC3 [Formula 68, (8-methyl-1,3,4,5-tetrahydro-2H-pyrido[4,3-b]indol-2-yl)(phenyl)methanone]
O=C(c1nccs1)N1CCc2[nH]c3ccc(-c4ccccc4)cc3c2C1 [Formula 11, (8-phenyl-1,3,4,5-tetrahydro-2H-pyrido[4,3-b]indol-2-yl)(thiazol-2-yl)methanone]
CCc1ccc(C(=O)N2CCc3[nH]c4ccc(-c5ccccc5)cc4c3C2)cc1 [Formula 16, (4-ethylphenyl)(8-phenyl-1,3,4,5-tetrahydro-2H-pyrido[4,3-b]indol-2-yl)methanone]
Cc1cccc(C(=O)N2CCc3[nH]c4ccc(-c5ccccc5)cc4c3C2)c1 [Formula 15, (8-phenyl-1,3,4,5-tetrahydro-2H-pyrido[4,3-b]indol-2-yl)(m-tolyl)methanone]
COc1ccc(C(=O)N2CCc3[nH]c4ccc(-c5ccccc5)cc4c3C2)cc1 [Formula 17, (4-methoxyphenyl)(8-phenyl-1,3,4,5-tetrahydro-2H-pyrido[4,3-b]indol-2-yl)methanone]
O=C(c1cccnc1)N1CCc2[nH]c3ccc(-c4ccccc4)cc3c2C1 [Formula 2, (8-phenyl-1,3,4,5-tetrahydro-2H-pyrido[4,3-b]indol-2-yl)(pyridin-3-yl)methanone]
Cc1ccc(-c2ccc3[nH]c4c(c3c2)CN(C(=O)c2ccccc2)CC4)cn1 [Formula 47, (8-(6-methylpyridin-3-yl)-1,3,4,5-tetrahydro-2H-pyrido[4,3-b]indol-2-yl)(phenyl)methanone]
N#Cc1ccccc1-c1ccc2[nH]c3c(c2c1)CN(C(=O)c1ccccc1)CC3 [Formula 61, 2-(2-benzoyl-2,3,4,5-tetrahydro-1H-pyrido[4,3-b]indol-8-yl)benzonitrile]
COc1ccc(-c2ccc3[nH]c4c(c3c2)CN(C(=O)c2ccccc2)CC4)cc1 [Formula 62, (8-(4-Methoxyphenyl)-1,3,4,5-tetrahydro-2H-pyrido[4,3-b]indol-2-yl)(phenyl)methanone]

IC50, < 3 µM:
COc1ccc(-c2ccc3[nH]c4c(c3c2)CN(C(=O)c2cccnc2)CC4)cc1 [Formula 63, (8-(4-Methoxyphenyl)-1,3,4,5-tetrahydro-2H-pyrido[4,3-b]indol-2-yl)(pyridin-3-yl)methanone]
O=C(c1ccccc1)N1CCc2[nH]c3ccc(-c4ccc([N+](=O)[O-])cc4)cc3c2C1 [Formula 71, (8-(4-nitrophenyl)-1,3,4,5-tetrahydro-2H-pyrido[4,3-b]indol-2-yl)(phenyl)methanone]
O=C(c1ccccc1)N1CCc2[nH]c3ccc(-c4ccc(F)cc4)cc3c2C1 [Formula 64, (8-(4-fluorophenyl)-1,3,4,5-tetrahydro-2H-pyrido[4,3-b]indol-2-yl)(phenyl)methanone]
O=C(c1cccnc1)N1CCc2[nH]c3ccc(-c4ccc(F)cc4)cc3c2C1 [Formula 65, (8-(4-fluorophenyl)-1,3,4,5-tetrahydro-2H-pyrido[4,3-b]indol-2-yl)(pyridin-3-yl)methanone]
Nc1ccc(-c2ccc3[nH]c4c(c3c2)CN(C(=O)c2ccccc2)CC4)cc1 [Formula 72, (8-(4-Aminophenyl)-1,3,4,5-tetrahydro-2H-pyrido[4,3-b]indol-2-yl)(phenyl)methanone]
N#Cc1ccc(-c2ccc3[nH]c4c(c3c2)CN(C(=O)c2ccccc2)CC4)cc1 [Formula 50]
Cc1ccc(-c2ccc3c(c2)c2c(n3C)CCN(C(=O)c3cccnc3)C2)cc1 [Formula 44, (5-methyl-8-(p-tolyl)-1,3,4,5-tetrahydro-2H-pyrido[4,3-b]indol-2-yl)(pyridin-3-yl)methanone]
